Assay [1] concerns the target T1, BRAF V600E (Homo sapiens, UniProt P15056, V600E).
T1 construct: purchased Upstate Biotechnology
Nature of the assay: BRAF V600E biochemical kinase activity assay (AlphaScreen, biotin-MEK1 substrate). Particulars: BRAF V600E biochemical inhibitory activity. (In general: In Alpha technology, singlet oxygen from a donor bead excites a nearby acceptor bead.)

Assay [2] relates to IPC-298 (NRAS Q61L) cell line. Nature of the assay: IPC-298 P-ERK cell activation assay (AlphaScreen). The assay is classed as cell-based, human. Particulars: Homo sapiens; P-ERK cell activation, IPC-298; numeric bounds; read-out: Cell activity (EC50 μM) IPC-298_P-ERK. In outline: (§1)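 Mouse B9 (HRAS-driven skin SCC) or human IPC-298 melanoma cells treated with an 8-point compound titration for one hour at 37° C., then lysed. ERK1/2 phosphorylation at Thr202/Tyr204 read by AlphaScreen with total-ERK and phospho-ERK antibodies.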

For assay [3], the system named is A375 (BRAF V600E) cell line. Kind of assay: A375 P-ERK inhibition assay (AlphaScreen). Type of assay: cell-based, human. As to conditions: Homo sapiens, A-375; A375_P-ERK. In outline:
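A375 cells treated with 8-point compound titration for 1 h at 37° C, then lysed. ERK1/2 Thr202/Tyr204 phosphorylation measured by AlphaScreen, using biotinylated total-ERK antibody on donor beads and phospho-specific antibody on acceptor beads.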

The subject of assay [4] is B9 (HRAS Q61L) cell line. Nature of the assay: B9 P-ERK cell activation assay (AlphaScreen). The assay is classed as cell-based, mouse. As to conditions: Mus musculus; P-ERK cell activation, B9; numeric bounds; read-out: Cell activity (EC50 μM) B9_pERK. In outline: as §1

T1 sequence (P15056 whole entry V600E): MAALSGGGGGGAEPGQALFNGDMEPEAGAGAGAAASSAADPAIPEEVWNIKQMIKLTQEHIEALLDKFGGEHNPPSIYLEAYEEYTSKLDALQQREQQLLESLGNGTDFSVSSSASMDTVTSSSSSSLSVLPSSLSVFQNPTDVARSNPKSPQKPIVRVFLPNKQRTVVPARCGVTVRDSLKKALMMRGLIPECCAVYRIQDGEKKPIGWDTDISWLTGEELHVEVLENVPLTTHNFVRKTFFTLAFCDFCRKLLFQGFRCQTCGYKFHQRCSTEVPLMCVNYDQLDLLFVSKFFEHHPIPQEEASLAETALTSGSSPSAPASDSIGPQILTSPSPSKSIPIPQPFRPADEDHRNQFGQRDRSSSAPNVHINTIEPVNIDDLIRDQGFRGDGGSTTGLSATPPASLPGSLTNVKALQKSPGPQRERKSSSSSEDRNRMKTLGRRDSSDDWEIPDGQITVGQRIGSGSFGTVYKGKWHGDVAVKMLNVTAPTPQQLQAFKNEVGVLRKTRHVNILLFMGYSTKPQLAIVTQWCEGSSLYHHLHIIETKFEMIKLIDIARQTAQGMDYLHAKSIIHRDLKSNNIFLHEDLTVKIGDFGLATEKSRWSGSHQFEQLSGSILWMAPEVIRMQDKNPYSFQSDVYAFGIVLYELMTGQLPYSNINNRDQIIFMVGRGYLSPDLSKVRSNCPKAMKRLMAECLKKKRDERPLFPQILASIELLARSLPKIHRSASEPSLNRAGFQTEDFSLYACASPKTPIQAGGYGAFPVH

Regarding `C[C@@H](Nc1ncnc2[nH]cc(C(=O)c3cccc(NS(=O)(=O)N4CCCC4)c3F)c12)C1CC1` [P-2094, N-[3-[4-[[(1R)-1-cyclopropylethyl]amino]-7H-pyrrolo[2,3-d]pyrimidine-5-carbonyl]-2-fluoro-phenyl]pyrrolidine-1-sulfonamide], the IC50 in assay [1] and in assay [3] was 0.0001 to 1 µM in each case. In addition, the EC50 in assay [2] and in assay [4] was more than 10 µM in each case.
On to `CCN(C)S(=O)(=O)Nc1ccc(F)c(C(=O)c2c[nH]c3ncnc(NC4CCOCC4)c23)c1F` [P-2119, 5-[3-[[ethyl(methyl)sulfamoyl]amino]-2,6-difluoro-benzoyl]-4-(tetrahydropyran-4-ylamino)-7H-pyrrolo[2,3-d]pyrimidine], for which the IC50 in assay [1] and in assay [3] was 0.0001 to 1 µM in each case. Besides, the half-maximal effective concentration (EC50) in assay [2] and in assay [4] was more than 10 µM each time.
`O=C(c1cccc(NS(=O)(=O)N2CCCC2)c1F)c1c[nH]c2ncnc(NC3CCC3)c12` [P-2081, N-[3-[4-(cyclobutylamino)-7H-pyrrolo[2,3-d]pyrimidine-5-carbonyl]-2-fluoro-phenyl]pyrrolidine-1-sulfonamide]: the IC50 in assay [1] and in assay [3] was 0.0001 to 1 µM each time. Also, the EC50 in assay [2] and in assay [4] was more than 10 µM each time.
Consider `CCOC(=O)CNc1ncnc2[nH]cc(C(=O)c3cccc(NS(=O)(=O)N4CCCC4)c3F)c12` [P-2103, ethyl 2-[[5-[2-fluoro-3-(pyrrolidin-1-ylsulfonylamino)benzoyl]-7H-pyrrolo[2,3-d]pyrimidin-4-yl]amino]acetate], for which the IC50 in assay [1] and in assay [3] was 0.0001 to 1 µM in each case. The EC50 in assay [2] and in assay [4] was more than 10 µM throughout.
For `CCN(CC)S(=O)(=O)Nc1ccc(F)c(C(=O)c2c[nH]c3nccc(C#N)c23)c1F` [P-2012, 4-cyano-3-[3-(diethylsulfamoylamino)-2,6-difluoro-benzoyl]-1H-pyrrolo[2,3-b]pyridine], the IC50 was 0.0001 to 1 µM in assay [1] and 1 to 10 µM in assay [3]. The EC50 in assay [2] and in assay [4] was more than 10 µM throughout.
Take `CC(C)(C)c1nc(-c2cccc(NS(=O)(=O)N3CCCC3)c2F)c(-c2ccnc3[nH]ccc23)s1` [P-2120, N-[3-[2-tert-butyl-5-(1H-pyrrolo[2,3-b]pyridin-4-yl)thiazol-4-yl]-2-fluoro-phenyl]pyrrolidine-1-sulfonamide]: the IC50 was 0.0001 to 1 µM in assay [1] and 1 to 10 µM in assay [3]. Besides, the EC50 in assay [2] and in assay [4] was more than 10 µM each time.
As for `COC(=O)C(CC(C)C)Nc1ncnc2[nH]cc(C(=O)c3cccc(NS(=O)(=O)N4CCCC4)c3F)c12` (stereo not shown) [P-2107, methyl 2-[[5-[2-fluoro-3-(pyrrolidin-1-ylsulfonylamino)benzoyl]-7H-pyrrolo[2,3-d]pyrimidin-4-yl]amino]-4-methyl-pentanoate], the figures for the IC50 in assay [1] and in assay [3] were 0.0001 to 1 µM and 1 to 10 µM, respectively. In addition, the EC50 in assay [2] and in assay [4] was more than 10 µM throughout.
Regarding `CC(C)(C)c1nc(-c2cccc(NS(=O)(=O)N3CCCC3)c2F)c(-c2ncnc3[nH]ccc23)s1` [P-2122, N-[3-[2-tert-butyl-5-(7H-pyrrolo[2,3-d]pyrimidin-4-yl)thiazol-4-yl]-2-fluoro-phenyl]pyrrolidine-1-sulfonamide], the IC50 in assay [1] and in assay [3] was 0.0001 to 1 µM in each case. For the same compound, the EC50 in assay [2] and in assay [4] was more than 10 µM each time.
As to `CC(=O)Nc1ccc(NC(=O)c2c(F)ccc(NS(=O)(=O)N3CCCC3)c2F)cn1` [P-2036, N-(6-acetamido-3-pyridyl)-2,6-difluoro-3-(pyrrolidin-1-ylsulfonylamino)benzamide], the IC50 in assay [1] and in assay [3] was 1 to 10 µM each time. In addition, the EC50 in assay [2] and in assay [4] was more than 10 µM in each case.
As to `CC(C)Nc1ncnc2[nH]cc(C(=O)c3c(F)ccc(NS(=O)(=O)N4CCCCC4)c3F)c12` [P-2038, N-[2,4-difluoro-3-[4-(isopropylamino)-7H-pyrrolo[2,3-d]pyrimidine-5-carbonyl]phenyl]piperidine-1-sulfonamide], the IC50 in assay [1] and in assay [3] was 0.0001 to 1 µM throughout. Besides, the EC50 in assay [2] and in assay [4] was more than 10 µM each time.
Regarding `CCN(C)S(=O)(=O)Nc1cccc(-c2nc(C(C)(C)C)sc2-c2ccnc(Cl)n2)c1F` [P-2085, 2-tert-butyl-5-(2-chloropyrimidin-4-yl)-4-[3-[[ethyl(methyl)sulfamoyl]amino]-2-fluoro-phenyl]thiazole], the IC50 in assay [1] was in the range of 1 to 10 µM; in assay [3], 0.0001 to 1 µM. Moreover, the EC50 in assay [2] and in assay [4] was more than 10 µM each time.
On to `CCN(C)S(=O)(=O)Nc1cccc(C(=O)c2c[nH]c3ncnc(NC)c23)c1F` [P-2062, 5-[3-[[ethyl(methyl)sulfamoyl]amino]-2-fluoro-benzoyl]-4-(methylamino)-7H-pyrrolo[2,3-d]pyrimidine], for which the IC50 in assay [1] and in assay [3] was 0.0001 to 1 µM throughout. Moreover, the EC50 in assay [2] and in assay [4] was more than 10 µM in each case.
Turning to `O=C(c1c(F)ccc(NS(=O)(=O)N2CCOCC2)c1F)c1c[nH]c2nccc(Cl)c12` [P-2024, N-[3-(4-chloro-1H-pyrrolo[2,3-b]pyridine-3-carbonyl)-2,4-difluoro-phenyl]morpholine-4-sulfonamide], the IC50 in assay [1] and in assay [3] was 0.0001 to 1 µM in each case. The EC50 in assay [2] and in assay [4] was more than 10 µM throughout.
Consider `CCN(C)S(=O)(=O)Nc1cccc(C(=O)c2c[nH]c3ncnc(NC4CCC(F)(F)CC4)c23)c1F` [P-2068, 4-[(4,4-difluorocyclohexyl)amino]-5-[3-[[ethyl(methyl)sulfamoyl]amino]-2-fluoro-benzoyl]-7H-pyrrolo[2,3-d]pyrimidine], for which the IC50 in assay [1] and in assay [3] was 0.0001 to 1 µM in each case. In addition, the EC50 in assay [2] and in assay [4] was more than 10 µM throughout.
`COCCCNc1ncnc2[nH]cc(C(=O)c3cccc(NS(=O)(=O)N4CCCC4)c3F)c12` [P-2105, N-[2-fluoro-3-[4-(3-methoxypropylamino)-7H-pyrrolo[2,3-d]pyrimidine-5-carbonyl]phenyl]pyrrolidine-1-sulfonamide]: the IC50 in assay [1] and in assay [3] was 0.0001 to 1 µM throughout. In addition, the EC50 in assay [2] and in assay [4] was more than 10 µM in each case.
With `CCCN(C)S(=O)(=O)Nc1cccc(C(=O)c2c[nH]c3ncnc(C4CC4)c23)c1F` [P-2087, 4-cyclopropyl-5-[2-fluoro-3-[[methyl(propyl)sulfamoyl]amino]benzoyl]-7H-pyrrolo[2,3-d]pyrimidine], the IC50 fell in the range of 0.0001 to 1 µM in assay [1] and 1 to 10 µM in assay [3]. Also, the EC50 in assay [2] and in assay [4] was more than 10 µM each time.
In the case of `O=C(c1c(F)ccc(NS(=O)(=O)C2CCC2)c1F)c1c[nH]c2ncncc12` [P-2030, N-[2,4-difluoro-3-(7H-pyrrolo[2,3-d]pyrimidine-5-carbonyl)phenyl]cyclobutanesulfonamide], the IC50 in assay [1] and in assay [3] was 1 to 10 µM in each case. Further, the EC50 in assay [2] and in assay [4] was more than 10 µM throughout.
Turning to `O=C(c1cccc(NS(=O)(=O)N2CCCC2)c1F)c1c[nH]c2ncnc(NC3CCOCC3)c12` [P-2083, N-[2-fluoro-3-[4-(tetrahydropyran-4-ylamino)-7H-pyrrolo[2,3-d]pyrimidine-5-carbonyl]phenyl]pyrrolidine-1-sulfonamide], the IC50 in assay [1] and in assay [3] was 0.0001 to 1 µM in each case. The EC50 in assay [2] and in assay [4] was more than 10 µM each time.
Turning to `CCCN(C)S(=O)(=O)Nc1cccc(C(=O)c2c[nH]c3ncnc(C)c23)c1F` [P-2086, 5-[2-fluoro-3-[[methyl(propyl)sulfamoyl]amino]benzoyl]-4-methyl-7H-pyrrolo[2,3-d]pyrimidine], the IC50 in assay [1] and in assay [3] was 0.0001 to 1 µM each time. Moreover, the concentration for a half-maximal effect (EC50) in assay [2] and in assay [4] was more than 10 µM throughout.
For the compound `O=C(c1c(F)ccc(NS(=O)(=O)C2CCC2)c1F)c1c[nH]c2nccc(Cl)c12` [Compound P-2008, N-[3-(4-chloro-1H-pyrrolo[2,3-b]pyridine-3-carbonyl)-2,4-difluoro-phenyl]cyclobutanesulfonamide], the IC50 in assay [1] and in assay [3] was 0.0001 to 1 µM throughout. Also, the EC50 in assay [2] and in assay [4] was more than 10 µM throughout.
Regarding `COc1ccnc2[nH]cc(C(=O)c3c(F)ccc(NS(=O)(=O)C(C)C)c3F)c12` [Compound P-2001, N-[2,4-difluoro-3-(4-methoxy-1H-pyrrolo[2,3-b]pyridine-3-carbonyl)phenyl]propane-2-sulfonamide], the IC50 is 0.0001 to 1 µM in assay [1] and more than 10 µM in assay [3]. Further, the EC50 in assay [2] and in assay [4] was more than 10 µM each time.
Take `CCN(C)S(=O)(=O)Nc1cccc(C(=O)c2c[nH]c3ncnc(NC4CCC4)c23)c1F` [P-2072, 4-(cyclobutylamino)-5-[3-[[ethyl(methyl)sulfamoyl]amino]-2-fluoro-benzoyl]-7H-pyrrolo[2,3-d]pyrimidine]: the IC50 in assay [1] and in assay [3] was 0.0001 to 1 µM each time. For the same compound, the EC50 in assay [2] and in assay [4] was more than 10 µM throughout.

Usually IC50 stands for the concentration at which inhibition is half-maximal. Read a low IC50 as greater potency in that assay. As usually defined, the EC50 is the concentration needed to bring the measured effect to its halfway point.

For the origin of these results see patent publication US10421761B2, “Compounds for kinase modulation, and indications therefor” (Plexxikon Inc., priority 2013, dated 2019).
